From patent publication US20240043417A1, “COMPOUNDS FOR THE TREATMENT OF SARS” (Purdue Research Foundation, priority 2020, published 2024)
Like-named read-outs stand apart in the source and are kept apart here.

What was measured:
[1] = biological target: SARS-CoV-2 3CLpro (Severe acute respiratory syndrome coronavirus 2 (2019-nCoV) (SARS-CoV-2), UniProt P0DTD1); test: SARS-CoV-2 3CLpro enzyme inhibition assay; format: biochemical
[2] = test system: SARS-CoV-2; test: microbe, parasite or virus in culture; format: cell-based; details: Severe acute respiratory syndrome coronavirus 2; read-out: Antiviral EC50 Data
[3] = SARS-CoV-2 3CLpro, 10 minutes pre-incubation of enzyme with compound, read-out: Enzyme IC50 Data

`CCCO[C@@H]1C[C@@H](C(=O)N[C@@H](C[C@@H]2CCNC2=O)C(=O)c2nc(-c3ccccc3)cs2)N(C(=O)[C@@H](NC(=O)NC(C)(C)C)C(C)(C)C)C1` gave an IC50 [1, 3] of over 100 µM and an EC50 [2] of 5 to 50 µM.
In the case of `CC(C)(C)NC(=O)N[C@H](C(=O)N1C[C@H]2[C@@H]([C@H]1C(=O)N[C@@H](C[C@@H]1CCNC1=O)C(=O)C(=O)NCc1ccccc1)C2(C)C)C(C)(C)C`, the IC50 [1] is reported as 50 to 100 µM and the EC50 [2] is reported as over 100 µM.
`CCN(CC)[C@@H]1C[C@@H](C(=O)N[C@@H](C[C@@H]2CCNC2=O)C(=O)c2nc(-c3ccccc3)cs2)N(C(=O)[C@@H](NC(=O)NC(C)(C)C)C(C)(C)C)C1` gave an IC50 [1, 3] of 0.1 to 5 µM.
`CCCN(CCC)[C@@H]1C[C@@H](C(=O)NC(C#N)C[C@@H]2CCNC2=O)N(C(=O)[C@@H](NC(=O)OC(C)(C)C)C(C)(C)C)C1` (some centres unmarked) was tested, and the IC50 [1, 3] was over 100 µM and the EC50 [2] was 5 to 50 µM.
`CCCC(=O)N[C@@H]1C[C@@H](C(=O)N[C@@H](C[C@H]2CCNC2=O)C(=O)c2nc3ccccc3s2)N(C(=O)[C@@H](NC(=O)OC(C)(C)C)C(C)(C)C)C1` showed an IC50 [1] of 0.1 to 5 µM and an EC50 [2] of over 100 µM.
For `CC(C)(C)[C@H](NC(=O)NCc1ccncc1)C(=O)N1C[C@H]2[C@@H]([C@H]1C(=O)N[C@@H](C[C@@H]1CCNC1=O)C(=O)c1nc(-c3ccccc3)cs1)C2(C)C`, the IC50 [1, 3] was 0.1 to 5 µM.
With `CN(C)[C@@H]1C[C@@H](C(=O)N[C@@H](C[C@@H]2CCNC2=O)C(=O)c2nc(-c3ccccc3)cs2)N(C(=O)[C@@H](NC(=O)NC(C)(C)C)C(C)(C)C)C1` the IC50 [1, 3] was 0.1 to 5 µM.
Molecule `CC(C)(C)[C@H](NC(=O)c1ccccc1)C(=O)N1C[C@H]2[C@@H]([C@H]1C(=O)N[C@H](C#N)C[C@@H]1CCNC1=O)C2(C)C` has an EC50 [2] of 50 to 100 µM.
`CC(=O)OC(C#N)[C@H](CC1CCCNC1=O)NC(=O)[C@@H]1[C@@H]2[C@H](CN1C(=O)C(NC(=O)NC(C)(C)C)C(C)(C)C)C2(C)C` (some centres unmarked) showed an EC50 [2] of over 100 µM.
`CC(C)(C)NC(=O)N[C@H](C(=O)N1C[C@H](N2CCOCC2)C[C@H]1C(=O)N[C@@H](C[C@H]1CCNC1=O)C(=O)c1nc2ccccc2s1)C(C)(C)C` gave an IC50 [1, 3] of 0.1 to 5 µM.
For `CCCN(CCC)[C@@H]1C[C@@H](C(=O)N[C@@H](C[C@H]2CCNC2=O)C(=O)c2nc(-c3ccccc3)cs2)N(C(=O)[C@@H](NC(=O)NC(C)(C)C)C(C)(C)C)C1`, the IC50 [1, 3] was 0.1 to 5 µM.
Work on `CCCO[C@@H]1C[C@@H](C(=O)NC(C#N)C[C@@H]2CCNC2=O)N(C(=O)[C@@H](NC(=O)NC(C)(C)C)C(C)(C)C)C1` (some centres unmarked) yielded an IC50 [1] of 50 to 100 µM and an EC50 [2] of over 100 µM.
For `CCCO[C@@H]1C[C@@H](C(=O)N[C@@H](C[C@@H]2CCNC2=O)C(=O)c2nc3ccccc3s2)N(C(=O)[C@@H](NC(=O)OC(C)(C)C)C(C)(C)C)C1` [drawing 99], the IC50 [1] was 0.1 to 5 µM and the EC50 [2] was 0.1 to 5 µM.
`CCCN(CCC)[C@@H]1C[C@@H](C(=O)N[C@@H](C[C@H]2CCNC2=O)C(=O)c2nc3ccccc3s2)N(C(=O)[C@@H](NC(=O)OC(C)(C)C)C(C)(C)C)C1` showed an IC50 [1] of 0.1 to 5 µM and an EC50 [2] of 5 to 50 µM.
Molecule `CCCN(CCC)[C@@H]1C[C@@H](C(=O)NC(C#N)C[C@@H]2CCNC2=O)N(C(=O)[C@@H](NC(=O)C(F)(F)F)C(C)(C)C)C1` (some centres unmarked) has an IC50 [1] of over 100 µM and an EC50 [2] of over 100 µM.
In the case of `CCCC(=O)N[C@@H]1C[C@@H](C(=O)N[C@@H](C[C@H]2CCNC2=O)C(=O)c2nc3ccccc3s2)N(C(=O)[C@@H](NC(=O)NC(C)(C)C)C(C)(C)C)C1`, the IC50 [1] is reported as 0.1 to 5 µM and the EC50 [2] is reported as over 100 µM.
`CC(C)(C)NC(=O)N[C@H](C(=O)N1C[C@H]2[C@@H]([C@H]1C(=O)N[C@@H](C[C@@H]1CCNC1=O)C(=O)c1nc(-c3ccccc3)co1)C2(C)C)C(C)(C)C` showed an IC50 [1, 3] of 50 to 100 µM.
Molecule `CCCO[C@@H]1C[C@@H](C(=O)N[C@@H](C[C@@H]2CCNC2=O)C(=O)c2nc3ccccc3s2)N(C(=O)[C@@H](NC(=O)OC(C)(C)C)C(C)(C)C)C1` [drawing 100] has an IC50 ([1]; read-out: Enzyme IC50 Data, SARS-CoV-2 3CLpro, 10 minutes pre-incubation of enzyme with compound) of 0.1 to 5 µM.
`CC(C)(C)NC(=O)N[C@H](C(=O)N1C[C@H]2[C@@H]([C@H]1C(=O)N[C@@H](C[C@@H]1CCNC1=O)C(=O)c1nc(-c3ccccc3)cs1)C2(C)C)C(C)(C)C` showed an IC50 [1] of 5 to 50 µM and an EC50 [2] of 5 to 50 µM.
In the case of `CC(C)(C)NC(=O)N[C@H](C(=O)N1C[C@H]2[C@@H]([C@H]1C(=O)NC(C#N)C[C@@H]1CCNC1=O)C2(C)C)C(C)(C)C` (some centres unmarked), the EC50 [2] is reported as over 100 µM.
Work on `CC(C)(C)NC(=O)N[C@H](C(=O)N1C[C@H]2[C@@H]([C@H]1C(=O)N[C@@H](C[C@@H]1CCNC1=O)C(=O)c1nc3ccccc3s1)C2(C)C)C(C)(C)C` yielded an IC50 [1] of 50 to 100 µM and an EC50 [2] of 5 to 50 µM.
With `CC(C)(C)NC(=O)N[C@H](C(=O)N1C[C@H](N2CCCC2)C[C@H]1C(=O)N[C@@H](C[C@H]1CCNC1=O)C(=O)c1nc2ccccc2s1)C(C)(C)C` the IC50 [1] was 5 to 50 µM and the EC50 [2] was over 100 µM.
For `CCCO[C@@H]1C[C@@H](C(=O)N[C@@H](C[C@@H]2CCNC2=O)C(=O)c2nc3ccccc3s2)N(C(=O)[C@@H](NC(=O)NC(C)(C)C)C(C)(C)C)C1`, the IC50 [1] was 0.1 to 5 µM and the EC50 [2] was 50 to 100 µM.
`CCCN(CCC)[C@@H]1C[C@@H](C(=O)N[C@@H](C[C@H]2CCNC2=O)C(=O)c2nc3ccccc3s2)N(C(=O)[C@@H](NC(=O)NC(C)(C)C)C(C)(C)C)C1` showed an IC50 [1, 3] of over 100 µM and an EC50 [2] of 5 to 50 µM.
Molecule `CC(C)(C)NC(=O)N[C@H](C(=O)N1C[C@H]2[C@@H]([C@H]1C(=O)N[C@@H](C[C@@H]1CCNC1=O)C(=O)C(N)=O)C2(C)C)C(C)(C)C` has an EC50 [2] of over 100 µM.
Molecule `CCCO[C@@H]1C[C@@H](C(=O)N[C@@H](CC2CCNC2=O)C(=O)c2nc3ccccc3s2)N(C(=O)C(NC(=O)NC(C)(C)C)C(C)C)C1` (some centres unmarked) has an IC50 [1] of 0.1 to 5 µM and an EC50 [2] of 50 to 100 µM.
